Measurements: PubChem BioAssay AID180 (DTP/NCI, 2004)
Values joined by “and” are separate entries in the source; they are usually repeats but may differ in a detail not shown here. Identical values can stand only once.

System: BDF1 mice, Adenocarcinoma 755 s.c., tumor weight T/C
Assay: NCI In Vivo Anticancer Drug Screen. Data for tumor model Adenocarcinoma 755 (subcutaneous) in B6D2F1 (BDF1) mice
Settings: endpoint: mean tumor weight, higher = larger tumour
Outline: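 Tumor-bearing mice receive test compound while controls get vehicle alone. Antitumor effect is scored from survival or tumor dimensions as a T/C quotient.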

[1] = dose: 10.0 mg/kg/injection, schedule: Q01DX011 (sc), vehicle: steriod suspending solution
[2] = dose: 50.0 mg/kg/injection, schedule: Q01DX011 (ip), vehicle: methylcellulose (MC)
[3] = dose: 15.0 mg/kg/injection, schedule: Q01DX011 (ip), vehicle: methylcellulose (MC)
[4] = dose: 125.0 mg/kg/injection, schedule: Q01DX011 (ip), vehicle: methylcellulose (MC)

C[C@]12CCC(=O)C[C@H]1CC[C@@H]1[C@@H]2C(=O)C[C@@]2(C)[C@H]1CC[C@]2(C)O
T/C [1]: 85 % of control | T/C (dose: 100.0 mg/kg/injection, schedule: Q01DX011 (sc), vehicle: steriod suspending solution): 103 % of control | T/C (dose: 200.0 mg/kg/injection, schedule: Q01DX011 (sc), vehicle: steriod suspending solution): 105 % of control

O=C(NCCCl)N1CCN(C(=O)NCCCl)CC1
T/C [2]: 55 % of control | T/C (dose: 100.0 mg/kg/injection, schedule: Q01DX011 (ip), vehicle: methylcellulose (MC)): 67 % of control | T/C (dose: 200.0 mg/kg/injection, schedule: Q01DX011 (ip), vehicle: methylcellulose (MC)): 39 % of control | T/C (dose: 400.0 mg/kg/injection, schedule: Q01DX011 (ip), vehicle: methylcellulose (MC)): 24 % of control

C[C@@H]1C[C@@H]([C@H](O)CC2CC(=O)NC(=O)C2)C(=O)[C@@H](C)C1
T/C (dose: 5.0 mg/kg/injection, schedule: Q#A X022 (ip), vehicle: alkali diluted with saline): 103 % of control | T/C (dose: 6.63 mg/kg/injection, schedule: Q01DX011 (ip), vehicle: carboxymethylcellulose (CMC)): 51 % of control | T/C (dose: 7.5 mg/kg/injection, schedule: Q01DX011 (ip), vehicle: methylcellulose (MC)): 89 % of control | T/C (dose: 8.63 mg/kg/injection, schedule: Q01DX011 (ip), vehicle: carboxymethylcellulose (CMC)): 87 % of control | T/C (dose: 9.5 mg/kg/injection, schedule: Q01DX011 (ip), vehicle: carboxymethylcellulose (CMC)): 103 % of control and 117 % of control | T/C (dose: 10.0 mg/kg/injection, schedule: Q01DX011 (im), vehicle: alkali diluted with saline): 79 % of control | T/C (dose: 10.0 mg/kg/injection, schedule: Q01DX011 (ip), vehicle: alkali diluted with saline): 66 % of control and 75 % of control | T/C (dose: 10.0 mg/kg/injection, schedule: Q01DX011 (oral), vehicle: alkali diluted with saline): 62 % of control | T/C [1]: 99 % of control | T/C (dose: 10.0 mg/kg/injection, schedule: Q#A X022 (ip), vehicle: alkali diluted with saline): 64 % of control | T/C (dose: 12.5 mg/kg/injection, schedule: Q01DX011 (ip), vehicle: methylcellulose (MC)): 71 % of control | T/C (dose: 13.25 mg/kg/injection, schedule: Q01DX011 (ip), vehicle: carboxymethylcellulose (CMC)): 120 % of control | T/C (dose: 13.8 mg/kg/injection, schedule: Q01DX011 (ip), vehicle: carboxymethylcellulose (CMC)): 38 % of control | T/C [3]: 49 % of control | T/C (dose: 17.25 mg/kg/injection, schedule: Q01DX011 (ip), vehicle: carboxymethylcellulose (CMC)): 50 % of control and 65 % of control | T/C (dose: 19.0 mg/kg/injection, schedule: Q01DX011 (ip), vehicle: carboxymethylcellulose (CMC)): 56 % of control and 59 % of control | T/C (dose: 20.0 mg/kg/injection, schedule: Q01DX006 (iv), vehicle: alkali diluted with saline): 91 % of control | T/C (dose: 20.0 mg/kg/injection, schedule: Q01DX011 (im), vehicle: alkali diluted with saline): 76 % of control | T/C (dose: 20.0 mg/kg/injection, schedule: Q01DX011 (oral), vehicle: alkali diluted with saline): 63 % of control | T/C (dose: 20.0 mg/kg/injection, schedule: Q01DX011 (sc), vehicle: steriod suspending solution): 48 % of control | T/C (dose: 23.0 mg/kg/injection, schedule: Q01DX011 (ip), vehicle: carboxymethylcellulose (CMC)): 31 % of control | T/C (dose: 25.0 mg/kg/injection, schedule: Q01DX011 (ip), vehicle: methylcellulose (MC)): 47 % of control | T/C (dose: 26.5 mg/kg/injection, schedule: Q01DX011 (ip), vehicle: carboxymethylcellulose (CMC)): 50 % of control | T/C (dose: 30.0 mg/kg/injection, schedule: Q01DX011 (ip), vehicle: methylcellulose (MC)): 33 % of control | T/C (dose: 30.0 mg/kg/injection, schedule: Q03DX004 (ip), vehicle: alkali diluted with saline): 117 % of control | T/C (dose: 34.5 mg/kg/injection, schedule: Q01DX011 (ip), vehicle: carboxymethylcellulose (CMC)): 12 % of control and 13 % of control | T/C (dose: 38.0 mg/kg/injection, schedule: Q01DX011 (ip), vehicle: carboxymethylcellulose (CMC)): 27 % of control and 32 % of control | T/C (dose: 40.0 mg/kg/injection, schedule: Q01DX006 (iv), vehicle: alkali diluted with saline): 95 % of control and 76 % of control | T/C (dose: 40.0 mg/kg/injection, schedule: Q01DX011 (oral), vehicle: alkali diluted with saline): 18 % of control and 42 % of control | T/C (dose: 40.0 mg/kg/injection, schedule: Q01DX011 (sc), vehicle: steriod suspending solution): 48 % of control | T/C (dose: 40.0 mg/kg/injection, schedule: Q#A X022 (ip), vehicle: alkali diluted with saline): 22 % of control and 36 % of control | T/C (dose: 50.0 mg/kg/injection, schedule: Q01DX001 (ip), vehicle: alkali diluted with saline): 88 % of control | T/C [2]: 13 % of control | T/C (dose: 60.0 mg/kg/injection, schedule: Q01DX011 (ip), vehicle: methylcellulose (MC)): 6 % of control | T/C (dose: 60.0 mg/kg/injection, schedule: Q03DX004 (ip), vehicle: alkali diluted with saline): 47 % of control | T/C (dose: 80.0 mg/kg/injection, schedule: Q01DX006 (iv), vehicle: alkali diluted with saline): 92 % of control and 93 % of control | T/C (dose: 80.0 mg/kg/injection, schedule: Q01DX011 (im), vehicle: alkali diluted with saline): 4 % of control and 9 % of control | T/C (dose: 80.0 mg/kg/injection, schedule: Q01DX011 (ip), vehicle: alkali diluted with saline): 9 % of control and 21 % of control | T/C (dose: 100.0 mg/kg/injection, schedule: Q01DX001 (ip), vehicle: alkali diluted with saline): 63 % of control | T/C (dose: 120.0 mg/kg/injection, schedule: Q03DX004 (ip), vehicle: alkali diluted with saline): 41 % of control | T/C (dose: 160.0 mg/kg/injection, schedule: Q01DX006 (iv), vehicle: alkali diluted with saline): 24 % of control | T/C (dose: 200.0 mg/kg/injection, schedule: Q01DX001 (ip), vehicle: alkali diluted with saline): 186 % of control | T/C (dose: 400.0 mg/kg/injection, schedule: Q01DX001 (ip), vehicle: alkali diluted with saline): 89 % of control

[I][Hg][CH2]C1OCCOC1[CH2][Hg][I] (stereo not drawn)
T/C (dose: 2.5 mg/kg/injection, schedule: Q01DX011 (ip), vehicle: carboxymethylcellulose (CMC)): 73 % of control | T/C (dose: 5.0 mg/kg/injection, schedule: Q01DX011 (ip), vehicle: carboxymethylcellulose (CMC)): 39 % of control | T/C (dose: 10.0 mg/kg/injection, schedule: Q01DX011 (ip), vehicle: carboxymethylcellulose (CMC)): 40 % of control | T/C (dose: 11.0 mg/kg/injection, schedule: Q01DX011 (ip), vehicle: other): 73 % of control | T/C (dose: 16.0 mg/kg/injection, schedule: Q01DX011 (ip), vehicle: carboxymethylcellulose (CMC)): 41 % of control | T/C (dose: 20.0 mg/kg/injection, schedule: Q01DX011 (ip), vehicle: carboxymethylcellulose (CMC)): 30 % of control | T/C (dose: 22.0 mg/kg/injection, schedule: Q01DX011 (ip), vehicle: other): 61 % of control | T/C (dose: 32.0 mg/kg/injection, schedule: Q01DX011 (ip), vehicle: carboxymethylcellulose (CMC)): 6 % of control | T/C (dose: 44.0 mg/kg/injection, schedule: Q01DX011 (ip), vehicle: other): 53 % of control | T/C (dose: 66.0 mg/kg/injection, schedule: Q01DX011 (ip), vehicle: other): 37 % of control

CC(Cl)CN(Cc1cc(O)c(CN(CC(C)Cl)CC(C)Cl)cc1O)CC(C)Cl (stereo not drawn)
T/C [4]: 58 % of control

C[C@]12CCC(=O)C=C1CC[C@H]1[C@@H]3CC[C@](O)(C(=O)CF)[C@@]3(C)C[C@H](O)[C@@]12F
T/C (dose: 0.87 mg/kg/injection, schedule: Q01DX011 (sc), vehicle: steriod suspending solution): 86 % of control | T/C (dose: 1.75 mg/kg/injection, schedule: Q01DX011 (sc), vehicle: steriod suspending solution): 68 % of control | T/C (dose: 3.5 mg/kg/injection, schedule: Q01DX011 (sc), vehicle: steriod suspending solution): 66 % of control and 69 % of control | T/C (dose: 7.0 mg/kg/injection, schedule: Q01DX011 (sc), vehicle: steriod suspending solution): 29 % of control and 34 % of control and 40 % of control | T/C (dose: 28.0 mg/kg/injection, schedule: Q01DX011 (sc), vehicle: steriod suspending solution): 9 % of control and 28 % of control | T/C (dose: 56.0 mg/kg/injection, schedule: Q01DX011 (sc), vehicle: steriod suspending solution): 10 % of control and 31 % of control

Cc1cn(C2CCCCC2)c(=O)n(-c2ccccc2)c1=O
T/C [3]: 108 % of control | T/C (dose: 31.0 mg/kg/injection, schedule: Q01DX011 (ip), vehicle: methylcellulose (MC)): 91 % of control | T/C (dose: 62.0 mg/kg/injection, schedule: Q01DX011 (ip), vehicle: methylcellulose (MC)): 93 % of control | T/C [4]: 96 % of control | T/C (dose: 250.0 mg/kg/injection, schedule: Q01DX011 (ip), vehicle: methylcellulose (MC)): 88 % of control

CCCCCCSc1ncnc2nc[nH]c12
T/C (dose: 31.0 mg/kg/injection, schedule: Q01DX011 (ip), vehicle: other): 93 % of control | T/C (dose: 62.0 mg/kg/injection, schedule: Q01DX011 (ip), vehicle: other): 35 % of control | T/C (dose: 125.0 mg/kg/injection, schedule: Q01DX011 (ip), vehicle: other): 2 % of control | T/C (dose: 250.0 mg/kg/injection, schedule: Q01DX011 (ip), vehicle: other): 1 % of control | T/C (dose: 300.0 mg/kg/injection, schedule: Q01DX010 (ip), vehicle: other): 5 % of control | T/C (dose: 400.0 mg/kg/injection, schedule: Q01DX010 (ip), vehicle: other): 3 % of control
